Measured values as given in patent US20120295917A1, “IMATINIB DICHL[…] ANTI-CANCER AGENT COMPRISING THE SAME” (CELLTRION PHARM, INC., priority 2009, published 2012).

Legend:
[1] = Hygroscopicity test (Karl-Fischer titrator); format: physicochemical; conditions: 40° C., relative humidity 75%
[2] = accelerated condition for 28 days; in words
Method: Particularly, each imatinib acid addition salt was stored in a sealed state under an accelerated condition (a temperature of 40° C. and a relative humidity of 75%), and after 0 (zero), 3, 7, 14 and 28 days, the remaining rate of the active ingredient was analyzed with a high performance liquid chromatography (HPLC).

[3] = tested on: colorectal adenocarcinoma cells (HT29); test: Cytotoxicity test (MTT); format: cell-based; conditions: for absorbance value based on 100% of the absorbance value for the control: HT29, 72 hours, MTT, 570 nm, mean of n=3
Method: Using a medium containing 10% of fetal bovine serum (FBS), Rosewell Park Memorial Institute medium (RPMI) and 1% of penicillin/streptomycin, a 2×10^5 cells/ml suspension of colorectal adenocarcinoma cells (HT29) was prepared. The prepared suspension was seeded into each well of […] and cultured for 24 hours. Each sample was added to three wells and cultured (n=3).
The medium was removed from each well after 24 hours and the wells were washed with phosphate buffered saline (PBS). […] 100 µl of each prepared solution was seeded into the wells and cultured at 37° C. for 72 hours.
10 μl of 3-(4,5-dimethylthiazol-2-yl)-2,5-diphenyltetrazolium bromide (MTT) was added to each sample and cultured for 4 hours. The absorbance of the solution was measured at 570 nm using Enzyme-linked immunosorbent assay (ELISA).

rats = conditions: cited from earlier work

SMILES	amount of moisture contained in the compound ([1]; 2 hours) [weight %]	amount of moisture contained in the compound ([1]; 8 hours) [weight %]	amount of moisture contained in the compound ([1]; 24 hours) [weight %]	amount of moisture contained in the compound ([1]; 3 days) [weight %]	amount of moisture contained in the compound ([1]; Initial) [weight %]	stability compared with imatinib methanesulfonate (β crystalline form) [2]	anti-cancer effects compared with imatinib methanesulfonate (β crystalline form) ([3]; HT29 cytotoxicity, in words)	LD50 (the lethal dose causing death in 50% of rats on oral administration) (rats)	absorbance value based on 100% of the absorbance value for the control ([3]; 1 nM) [%]	absorbance value based on 100% of the absorbance value for the control ([3]; 10 nM) [%]	absorbance value based on 100% of the absorbance value for the control ([3]; 100 nM) [%]
CS(=O)(=O)O.Cc1ccc(NC(=O)c2ccc(CN3CCN(C)CC3)cc2)cc1Nc1nccc(-c2cccnc2)n1 [Imatinib Methanesulfonate, reference compound]	0.89	0.86	0.84	1.11	0.83	–	–	–	–	–	–
Cc1ccc(NC(=O)c2ccc(CN3CCN(C)CC3)cc2)cc1Nc1nccc(-c2cccnc2)n1 [Imatinib dichloroacetate (crystalline form I)]	1.14	1.18	1.14	1.26	1.14	same or higher level of stability	more potent anti-cancer effects	–	–	–	–
O=C(O)C(Cl)Cl [dichloroacetic acid]	–	–	–	–	–	–	–	2,820 mg/kg	101.2	98.6	95.2
Cc1ccc(NC(=O)c2ccc(CN3CCN(C)CC3)cc2)cc1Nc1nccc(-c2cccnc2)n1 [Imatinib dichloroacetate (crystalline form II)]	0.83	0.87	0.86	0.95	0.85	same or higher level of stability	–	–	–	–	–
